Laboratory results from the supplement of paper PMC10307832.

Assays:
Assay in all cases: relative viability (nuclei count vs DMSO), 5 days (fraction); higher = more cells survive
PC-3 [JPC-3] = test system: PC-3 [JPC-3]
Procedure, shortened: (§1)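 Lung cancer cell lines were pin-tool dosed in 1536-well plates on the day after seeding, with either a lone drug or a fixed anchor-drug dose plus five library-drug doses (not always all listed) in √10 steps. Nuclei were counted on 4× images after 5 days. Relative viability is the ratio of treated-well to vehicle-well nuclei counts, with each value a median of duplicate plates.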

UMC-11 = test system: UMC-11
Procedure, shortened: as §1

HCC-15 = test system: HCC-15
Procedure, shortened: as §1

LC-2-ad = test system: LC-2-ad
Procedure, shortened: as §1

NCI-H1666 = test system: NCI-H1666
Procedure, shortened: as §1

NCI-H1944 = test system: NCI-H1944
Procedure, shortened: as §1

NCI-H661 = test system: NCI-H661
Procedure, shortened: as §1

HCC-78 = test system: HCC-78
Procedure, shortened: as §1

NCI-H838 = test system: NCI-H838
Procedure, shortened: as §1

LXF-289 = test system: LXF-289
Procedure, shortened: as §1

NCI-H596 = test system: NCI-H596
Procedure, shortened: as §1

LK-2 = test system: LK-2
Procedure, shortened: as §1

SK-MES-1 = test system: SK-MES-1
Procedure, shortened: as §1

NCI-H358 = test system: NCI-H358
Procedure, shortened: as §1

NCI-H2087 = test system: NCI-H2087
Procedure, shortened: as §1

NCI-H2342 = test system: NCI-H2342
Procedure, shortened: as §1

NCI-H322M = test system: NCI-H322M
Procedure, shortened: as §1

LCLC-97TM1 = test system: LCLC-97TM1
Procedure, shortened: as §1

NCI-H650 = test system: NCI-H650
Procedure, shortened: as §1

ChaGo-K-1 = test system: ChaGo-K-1
Procedure, shortened: as §1

NCI-H1651 = test system: NCI-H1651
Procedure, shortened: as §1

BEN = test system: BEN
Procedure, shortened: as §1

LU99A = test system: LU99A
Procedure, shortened: as §1

Compound CC1(C)CCC(c2ccc(Cl)cc2)=C(CN2CCN(c3ccc(C(=O)NS(=O)(=O)c4ccc(N[C@H](CCN5CCOCC5)CSc5ccccc5)c(S(=O)(=O)C(F)(F)F)c4)cc3)CC2)C1 [Navitoclax] + CC(=O)Nc1cccc(-n2c(=O)n(C3CC3)c(=O)c3c(Nc4ccc(I)cc4F)n(C)c(=O)c(C)c32)c1 [Trametinib] (partner 0.02 µM) has a relative viability (PC-3 [JPC-3]; first compound 0.005 µM) of 0.674, a relative viability (PC-3 [JPC-3]; first compound 0.01581 µM) of 0.714 and a relative viability (PC-3 [JPC-3]; first compound 0.05 µM) of 0.734. It also gave a relative viability (PC-3 [JPC-3]; first compound 0.1581 µM) of 0.668, a relative viability (PC-3 [JPC-3]; first compound 0.5 µM) of 0.603 and a relative viability (UMC-11; first compound 0.005 µM) of 0.658. The relative viability (UMC-11; first compound 0.01581 µM) was 0.703, the relative viability (UMC-11; first compound 0.05 µM) was 0.483 and the relative viability (UMC-11; first compound 0.1581 µM) was 0.574. It also gave a relative viability (UMC-11; first compound 0.5 µM) of 0.321, a relative viability (HCC-15; first compound 0.005 µM) of 0.329 and a relative viability (HCC-15; first compound 0.01581 µM) of 0.432. The relative viability (HCC-15; first compound 0.05 µM) was 0.332, the relative viability (HCC-15; first compound 0.1581 µM) was 0.401 and the relative viability (HCC-15; first compound 0.5 µM) was 0.35. For the same compound, the relative viability (LC-2-ad; first compound 0.005 µM) was 0.861, the relative viability (LC-2-ad; first compound 0.01581 µM) was 0.906 and the relative viability (LC-2-ad; first compound 0.05 µM) was 0.813. The relative viability (LC-2-ad; first compound 0.1581 µM) was 0.902, the relative viability (LC-2-ad; first compound 0.5 µM) was 0.823 and the relative viability (NCI-H1666; first compound 0.005 µM) was 0.933. It also gave a relative viability (NCI-H1666; first compound 0.01581 µM) of 0.937, a relative viability (NCI-H1666; first compound 0.05 µM) of 0.928 and a relative viability (NCI-H1666; first compound 0.1581 µM) of 0.903. It also gave a relative viability (NCI-H1666; first compound 0.5 µM) of 0.931, a relative viability (NCI-H1944; first compound 0.005 µM) of 0.414 and a relative viability (NCI-H1944; first compound 0.01581 µM) of 0.407. The relative viability (NCI-H1944; first compound 0.1581 µM) was 0.422, the relative viability (NCI-H1944; first compound 0.5 µM) was 0.373 and the relative viability (NCI-H661; first compound 0.005 µM) was 0.516. The relative viability (NCI-H661; first compound 0.01581 µM) was 0.702, the relative viability (NCI-H661; first compound 0.05 µM) was 0.551 and the relative viability (NCI-H661; first compound 0.1581 µM) was 0.533. The relative viability (NCI-H661; first compound 0.5 µM) was 0.538, the relative viability (HCC-78; first compound 0.005 µM) was 0.653 and the relative viability (HCC-78; first compound 0.01581 µM) was 0.826. The relative viability (HCC-78; first compound 0.05 µM) was 0.59, the relative viability (HCC-78; first compound 0.1581 µM) was 0.727 and the relative viability (HCC-78; first compound 0.5 µM) was 0.727. It also gave a relative viability (NCI-H838; first compound 0.005 µM) of 0.422, a relative viability (NCI-H838; first compound 0.01581 µM) of 0.639 and a relative viability (NCI-H838; first compound 0.05 µM) of 0.51. The relative viability (NCI-H838; first compound 0.1581 µM) was 0.559, the relative viability (NCI-H838; first compound 0.5 µM) was 0.555 and the relative viability (LXF-289; first compound 0.005 µM) was 0.649. The relative viability (LXF-289; first compound 0.01581 µM) was 0.709, the relative viability (LXF-289; first compound 0.05 µM) was 0.633 and the relative viability (LXF-289; first compound 0.1581 µM) was 0.69. It also gave a relative viability (LXF-289; first compound 0.5 µM) of 0.692, a relative viability (NCI-H596; first compound 0.005 µM) of 0.796 and a relative viability (NCI-H596; first compound 0.01581 µM) of 1.22. The relative viability (NCI-H596; first compound 0.05 µM) was 0.693, the relative viability (NCI-H596; first compound 0.1581 µM) was 0.79 and the relative viability (NCI-H596; first compound 0.5 µM) was 0.776. The relative viability (LK-2; first compound 0.005 µM) was 0.76, the relative viability (LK-2; first compound 0.01581 µM) was 0.868 and the relative viability (LK-2; first compound 0.05 µM) was 0.922. It also gave a relative viability (LK-2; first compound 0.1581 µM) of 0.807, a relative viability (LK-2; first compound 0.5 µM) of 0.695 and a relative viability (SK-MES-1; first compound 0.005 µM) of 0.516. The relative viability (SK-MES-1; first compound 0.01581 µM) was 0.681, the relative viability (SK-MES-1; first compound 0.05 µM) was 0.547 and the relative viability (SK-MES-1; first compound 0.1581 µM) was 0.591. The relative viability (SK-MES-1; first compound 0.5 µM) was 0.654, the relative viability (NCI-H358; first compound 0.005 µM) was 0.131 and the relative viability (NCI-H358; first compound 0.01581 µM) was 0.148. It also gave a relative viability (NCI-H358; first compound 0.05 µM) of 0.114, a relative viability (NCI-H358; first compound 0.1581 µM) of 0.133 and a relative viability (NCI-H358; first compound 0.5 µM) of 0.146. The relative viability (NCI-H2087; first compound 0.005 µM) was 0.177, the relative viability (NCI-H2087; first compound 0.01581 µM) was 0.194 and the relative viability (NCI-H2087; first compound 0.1581 µM) was 0.145. It also gave a relative viability (NCI-H2087; first compound 0.5 µM) of 0.151, a relative viability (NCI-H2342; first compound 0.005 µM) of 0.8 and a relative viability (NCI-H2342; first compound 0.01581 µM) of 0.957. For the same compound, the relative viability (NCI-H2342; first compound 0.05 µM) was 0.819, the relative viability (NCI-H2342; first compound 0.1581 µM) was 0.653 and the relative viability (NCI-H2342; first compound 0.5 µM) was 0.967. For the same compound, the relative viability (NCI-H322M; first compound 0.005 µM) was 0.538, the relative viability (NCI-H322M; first compound 0.01581 µM) was 0.533 and the relative viability (NCI-H322M; first compound 0.05 µM) was 0.453. The relative viability (NCI-H322M; first compound 0.1581 µM) was 0.484, the relative viability (NCI-H322M; first compound 0.5 µM) was 0.539 and the relative viability (LCLC-97TM1; first compound 0.005 µM) was 0.184. The relative viability (LCLC-97TM1; first compound 0.01581 µM) was 0.232, the relative viability (LCLC-97TM1; first compound 0.05 µM) was 0.186 and the relative viability (LCLC-97TM1; first compound 0.1581 µM) was 0.211. It also gave a relative viability (LCLC-97TM1; first compound 0.5 µM) of 0.189, a relative viability (NCI-H650; first compound 0.005 µM) of 0.907 and a relative viability (NCI-H650; first compound 0.01581 µM) of 1.2. It also gave a relative viability (NCI-H650; first compound 0.05 µM) of 0.872, a relative viability (NCI-H650; first compound 0.1581 µM) of 1.09 and a relative viability (NCI-H650; first compound 0.5 µM) of 0.878. It also gave a relative viability (ChaGo-K-1; first compound 0.005 µM) of 0.812, a relative viability (ChaGo-K-1; first compound 0.01581 µM) of 0.859 and a relative viability (ChaGo-K-1; first compound 0.05 µM) of 0.451. For the same compound, the relative viability (ChaGo-K-1; first compound 0.1581 µM) was 0.904, the relative viability (ChaGo-K-1; first compound 0.5 µM) was 0.837 and the relative viability (NCI-H1651; first compound 0.005 µM) was 0.822. It also gave a relative viability (NCI-H1651; first compound 0.01581 µM) of 0.921, a relative viability (NCI-H1651; first compound 0.05 µM) of 0.61 and a relative viability (NCI-H1651; first compound 0.1581 µM) of 0.771. For the same compound, the relative viability (NCI-H1651; first compound 0.5 µM) was 0.864, the relative viability (BEN; first compound 0.005 µM) was 1.07 and the relative viability (BEN; first compound 0.01581 µM) was 1.18. It also gave a relative viability (BEN; first compound 0.05 µM) of 0.94, a relative viability (BEN; first compound 0.1581 µM) of 1.05 and a relative viability (BEN; first compound 0.5 µM) of 0.669. It also gave a relative viability (LU99A; first compound 0.005 µM) of 0.527, a relative viability (LU99A; first compound 0.01581 µM) of 0.597 and a relative viability (LU99A; first compound 0.1581 µM) of 0.572. It also gave a relative viability (LU99A; first compound 0.5 µM) of 0.674.
